Data published in patent US8937077B2, “Bicyclic diamines as janus kinase inhibitors” (Merck Sharp & Dohme Corp., priority 2010, dated 2015).

biological target: T1, Jak1 (Homo sapiens, UniProt P23458); test: Jak Biochemical HTRF Assay (Jak1); details: IC50 class, recombinant GST-tagged catalytic domain, read-out: Jak1 activity
T1 construct: using a recombinant purified GST-tagged catalytic domain for each enzyme; GST; purchased Invitrogen M4290
From the text: Compounds of formula I can be prepared according to the general procedures described in the Schemes and Examples herein, using appropriate materials. Representative compounds of the present invention are exemplified herein below. The compounds exemplified are not, however, to be construed as limiting the scope of the invention in any manner. The examples further illustrate details for the preparation of the compounds of the present invention. Those skilled in the art will readily understand that known variations of protecting groups, of reagents, as well as of the conditions and processes of the following preparative procedures, can be used to prepare these compounds. It is also understood that whenever a chemical reagent is not commercially available, such a chemical reagent can be readily prepared by those skilled in the art by either following or adapting known methods described in the literature or described herein. Chiral analogs were prepared via incorporation of chiral reagents or obtained after chiral chromatography separation of a racemically generated analog. All temperatures are degrees Celsius unless otherwise noted. Mass spectra (MS) were measured either by electrospray ion-mass spectroscopy (ESMS) or by atmospheric pressure chemical ionization mass spectroscopy (APCI). Jak1 data were obtained using the in vitro assay described below.
Jak Biochemical HTRF Assay Protocol
The ability of compounds to inhibit the activity of Jak1, Jak2, Jak3, and Tyk2 was measured using a recombinant purified GST-tagged catalytic domain for each enzyme (Invitrogen Jak1 #M4290, […]) in an HTRF format biochemical assay. The reactions employed a common peptide substrate, LCB-EQEDEPEGDYFEWLW-NH2 (in-house). The basic assay protocol is as follows: First, […] of diluted compounds in DMSO were dispensed into the wells of a dry 384-well Black plate (Greiner #781076) using a Labcyte Echo 555 acoustic dispenser. Subsequent reagent additions employed an Agilent Bravo. Next, 18 μL, of 1.11X enzyme and 1.11X substrate in 1X assay buffer (Invitrogen kinase buffer #PV3189, 2 mM DTT, 0.05% BSA) were added to the wells and shaken and then preincubated for 30 minutes at room temperature to allow compound binding to equilibrate. After equilibration, 2 μL of 10X ATP in 1X assay buffer was added to initiate the kinase reaction and the plates were shaken and then incubated at room temperature for 120 minutes. At the end of the incubation, 20 μL of 2X stop buffer (streptavidin-Dylight (Thermo #21845), Eu-tagged pY20 antibody (Perkin Elmer #AD0067), EDTA, HEPES, and Triton) was added to quench the reaction. Plates were shaken and centrifuged and then incubated 60 minutes at room temperature and then read on a Perkin Elmer Envision (λex=337 nm, λem=665 and 615 nm, TRF delay time=20 μs). HTRF signal=10,000*665 nm reading/615 nm reading. After normalization to untreated controls, the percent inhibition of the HTRF signal at each compound concentration was calculated. The plot of percent inhibition versus the log of compound concentration was fit with a 4-parameter dose response equation to calculate IC50 values.

T1 sequence (P23458 875-1153 limits assumed): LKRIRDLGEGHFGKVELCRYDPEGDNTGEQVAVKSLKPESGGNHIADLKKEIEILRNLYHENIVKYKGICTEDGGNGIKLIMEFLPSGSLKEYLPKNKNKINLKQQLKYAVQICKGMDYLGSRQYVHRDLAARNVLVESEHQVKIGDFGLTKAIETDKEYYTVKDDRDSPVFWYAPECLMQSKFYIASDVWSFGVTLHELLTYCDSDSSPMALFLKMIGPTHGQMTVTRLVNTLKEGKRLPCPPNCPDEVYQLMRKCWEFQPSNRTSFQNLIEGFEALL

| Compound | IC50 [µM] |
| --- | --- |
| COC(=O)c1ccc(CCOC(=O)N2CCC[C@@H]3[C@H]2CCN3c2ncnc3[nH]ccc23)cc1 [Example 3-21, 2-[4-(methoxycarbonyl)phenyl]ethyl (3aR,7aR)-1-(7H-pyrrolo[2,3-d]pyrimidin-4-yl)octahydro-4H-pyrrolo[3,2-b]pyridine-4-carboxylate] | 0.01 to 0.1 |
| O=C(OCCn1ccc2ccccc21)N1CCC[C@@H]2[C@H]1CCN2c1ncnc2[nH]ccc12 [Example 3-45, 2-(1H-indol-1-yl)ethyl (3aR,7aR)-1-(7H-pyrrolo[2,3-d]pyrimidin-4-yl)octahydro-4H-pyrrolo[3,2-b]pyridine-4-carboxylate] | 0.01 to 0.1 |
| CC1CCN(C(=O)CC#N)C2CCN(c3ncnc4[nH]ccc34)C12 [Example 22, (3aS,7S,7aS and 3aR,7R,7aR) 3-[7-methyl-1-(7H-pyrrolo[2,3-d]pyrimidin-4-yl)octahydro-4H-pyrrolo[3,2-b]pyridin-4-yl]-3-oxopropanenitrile] | 0.1 to 1 |
| O=C(c1cn2cccnc2n1)N1CCC[C@@H]2[C@H]1CCN2c1ncnc2[nH]ccc12 [Example 29-27, 4-[(3aR,7aR)-4-(imidazo[1,2-a]pyrimidin-2-ylcarbonyl)octahydro-1H-pyrrolo[3,2-b]pyridin-1-yl]-7H-pyrrolo[2,3-d]pyrimidine] | 0.01 to 0.1 |
| CCS(=O)(=O)N1CCC[C@@H]2[C@H]1CCN2c1ncnc2[nH]ccc12 (single isomer, unassigned) [Example 32-3] | 0.01 to 0.1 |
| CN1CCN(CCOC(=O)N2CCC[C@@H]3[C@H]2CCN3c2ncnc3[nH]ccc23)CC1 [Example 3-41, 2-(4-methylpiperazin-1-yl)ethyl(3aR,7aR)-1-(7H-pyrrolo[2,3-d]pyrimidin-4-yl)octahydro-4H-pyrrolo[3,2-b]pyridine-4-carboxylate] | 0.1 to 1 |
| O=C1CCCN1CC(=O)N1CCC[C@@H]2[C@H]1CCN2c1ncnc2[nH]ccc12 [Example 29-16, 1-{2-oxo-2-[(3aR,7aR)-1-(7H-pyrrolo[2,3-d]pyrimidin-4-yl)octahydro-4H-pyrrolo[3,2-b]pyridin-4-yl]ethyl}pyrrolidin-2-one] | 0.1 to 1 |
| O=C(C(O)c1ccccc1)N1CCC[C@@H]2[C@H]1CCN2c1ncnc2[nH]ccc12 (stereo partly drawn) [Example 29-46, 2-oxo-1-phenyl-2-[(3aR,7aR)-1-(7H-pyrrolo[2,3-d]pyrimidin-4-yl)octahydro-4H-pyrrolo[3,2-b]pyridin-4-yl]ethanol] | 0.01 to 0.1 |
| Cc1cc(C(=O)N2CCC[C@@H]3[C@H]2CCN3c2ncnc3[nH]ccc23)no1 [Example 29-14, 4-{(3aR,7aR)-4[(5-methylisoxazol-3-yl)carbonyl]octahydro-1H-pyrrolo[3,2-b]pyridin-1-yl}-7H-pyrrolo[2,3-d]pyrimidine] | 0.1 to 1 |
| O=C(Cn1cnc2ccccc21)N1CCC[C@@H]2[C@H]1CCN2c1ncnc2[nH]ccc12 [Example 29-53, 4-[(3aR,7aR)-4-(1H-benzimidazol-1-ylacetyl)octahydro-1H-pyrrolo[3,2-b]pyridin-1-yl]-7H-pyrrolo[2,3-d]pyrimidine] | 0.1 to 1 |
| O=C(OCc1ccccc1)N1CCCC2C1CCN2c1ccnc2[nH]ccc12 [Example 30, (3aS,7aS and 3aR,7aR) benzyl 1-(1H-pyrrolo[2,3-b]pyridine-4-yl)octahydro-4H-pyrrolo[3,2-b]pyridine-4-carboxylate] | 0.1 to 1 |
| CC(C)(C)OC(=O)N1CCC[C@@H]2[C@H]1CCN2c1ncnc2[nH]ccc12 [Example 11, tert-butyl (3aR,7aR)-1-(7H-pyrrolo[2,3-d]pyrimidin-4-yl)octahydro-4H-pyrrolo[3,2-b]pyridin-4-carboxylate] | 0.1 to 1 |
| N#Cc1cccc(C(=O)N2CCC[C@@H]3[C@H]2CCN3c2ncnc3[nH]ccc23)c1 [Example 29-31, 3-{[(3aR,7aR)-1-(7H-pyrrolo[2,3-d]pyrimidin-4-yl)octahydro-4H-pyrrolo[3,2-b]pyridin-4-yl]carbonyl}benzonitrile] | 0.01 to 0.1 |
| CC(Cc1ccccc1)C(=O)N1CCC[C@@H]2[C@H]1CCN2c1ncnc2[nH]ccc12 (mixture of isomers) [Example 29-56, (2S and 2R)-2-methyl-3-phenyl-1-[(3aR,7aR)-1-(7H-pyrrolo[2,3-d]pyrimidin-4-yl)octahydro-4H-pyrrolo[3,2-b]pyridine-4-yl]propan-1-one] | 0.01 to 0.1 |
| O=C(c1cccs1)N1CCC[C@@H]2[C@H]1CCN2c1ncnc2[nH]ccc12 [Example 29-28, 4-[(3aR,7aR)-4-(thiophen-2-ylcarbonyl)octahydro-1H-pyrrolo[3,2-b]pyridin-1-yl]-7H-pyrrolo[2,3-d]pyrimidine] | 0.001 to 0.01 |
| O=C(Cn1cc2ccccc2n1)N1CCC[C@@H]2[C@H]1CCN2c1ncnc2[nH]ccc12 [Example 29-54, 4-[(3aR,7aR)-4-(2H-indazol-2-ylacetyl)octahydro-1H-pyrrolo[3,2-b]pyridin-1-yl]-7H-pyrrolo[2,3-d]pyrimidine] | 0.1 to 1 |
| COCC(=O)N1CCC[C@@H]2[C@H]1CCN2c1ncnc2[nH]ccc12 (single isomer, unassigned) [Example 29-8] | 0.1 to 1 |
| c1ccc(-c2nnc(N3CCCC4C3CCN4c3ncnc4[nH]ccc34)o2)cc1 [Example 31, (3aS,7aS and 3aR,7aR) 4-[4-(5-phenyl-1,3,4-oxadiazol-2-yl)octahydro-1H-pyrrolo[3,2-b]pyridin-1-yl]-7H-pyrrolo[2,3-d]pyrimidine] | 0.1 to 1 |
| O=C(c1ccncc1)N1CCC[C@@H]2[C@H]1CCN2c1ncnc2[nH]ccc12 [Example 29-12, 4-[(3aR,7aR)-4-(pyridin-4-ylcarbonyl)octahydro-1H-pyrrolo[3,2-b]pyridin-1-yl]-7H-pyrrolo[2,3-d]pyrimidine] | 0.01 to 0.1 |
| O=C(c1cc2ccccn2c1)N1CCC[C@@H]2[C@H]1CCN2c1ncnc2[nH]ccc12 [Example 29-52, 4-[(3aR,7aR)-4-(indolizin-2-ylcarbonyl)octahydro-1H-pyrrolo[3,2-b]pyridin-1-yl]-7H-pyrrolo[2,3-d]pyrimidine] | 0.1 to 1 |
| O=C(C1COc2ccccc2O1)N1CCC[C@@H]2[C@H]1CCN2c1ncnc2[nH]ccc12 (stereo partly drawn) [Example 29-38, 4-[(3aR,7aR)-4-(2,3-dihydro-1,4-benzodioxin-2-ylcarbonyl)octahydro-1H-pyrrolo[3,2-b]pyridin-1-yl]-7H-pyrrolo[2,3-d]pyrimidine] | 0.01 to 0.1 |
| O=C(OCCc1cccc2ccccc12)N1CCC[C@@H]2[C@H]1CCN2c1ncnc2[nH]ccc12 [Example 3-34, 2-naphthalen-1-ylethyl (3aR,7aR)-1-(7H-pyrrolo[2,3-d]pyrimidin-4-yl)octahydro-4H-pyrrolo[3,2-b]pyridine-4-carboxylate] | 0.1 to 1 |
| O=C1NCc2ccc(C(=O)N3CCC[C@@H]4[C@H]3CCN4c3ncnc4[nH]ccc34)cc21 [Example 29-62, 6-{[(3aR,7aR)-1-(7H-pyrrolo[2,3-d]pyrimidin-4-yl)octahydro-4H-pyrrolo[3,2-b]pyridin-4-yl]carbonyl}-2,3-dihydro-1H-isoindol-1-one] | 0.01 to 0.1 |
| CN1CCC(COC(=O)N2CCC[C@@H]3[C@H]2CCN3c2ncnc3[nH]ccc23)CC1 [Example 3-42, (1-methylpiperidin-4-yl)methyl (3 aR,7 aR)-1-(7H-pyrrolo[2,3-d]pyrimidin-4-yl)octahydro-4H-pyrrolo[3,2-b]pyridine-4-carboxylate] | 0.1 to 1 |
| CC1CCN(Cc2ccccc2)C2CCN(c3ncnc4[nH]ccc34)C12 [Example 21, (3aS,7S,7aS and 3aR,7R,7aR) 4-(4-benzyl-7-methyloctahydro-1H-pyrrolo[3,2-b]pyridin-1-yl)-7H-pyrrolo[2,3-d]pyrimidine] | 0.01 to 0.1 |
| CC(C(=O)N1CCC[C@@H]2[C@H]1CCN2c1ncnc2[nH]ccc12)N1CCOCC1 (mixture of isomers) [Example 29-43, 4-[(3aR,7aR)-4-(2-morpholin-4-ylpropanoyl)octahydro-1H-pyrrolo[3,2-b]pyridin-1-yl]7H-pyrrolo[2,3-d]pyrimidine] | 0.01 to 0.1 |
| O=C(OCCc1cc(F)cc(F)c1)N1CCC[C@@H]2[C@H]1CCN2c1ncnc2[nH]ccc12 [Example 3-44, 2-(3,5-difluorophenyl)ethyl (3aR,7aR)-1-(7H-pyrrolo[2,3-d]pyrimidin-4-yl)octahydro-4H-pyrrolo[3,2-b]pyridine-4-carboxylate] | 0.01 to 0.1 |

same assay, conditions: recombinant GST-tagged catalytic domain, 31.8 μM ATP, read-out: Representative IC50 values

| Compound | IC50 [µM] |
| --- | --- |
| CN1CCN(CCOC(=O)N2CCC[C@@H]3[C@H]2CCN3c2ncnc3[nH]ccc23)CC1 [Example 3-41, 2-(4-methylpiperazin-1-yl)ethyl(3aR,7aR)-1-(7H-pyrrolo[2,3-d]pyrimidin-4-yl)octahydro-4H-pyrrolo[3,2-b]pyridine-4-carboxylate] | 0.131 |
| O=C(c1cccs1)N1CCC[C@@H]2[C@H]1CCN2c1ncnc2[nH]ccc12 [Example 29-28, 4-[(3aR,7aR)-4-(thiophen-2-ylcarbonyl)octahydro-1H-pyrrolo[3,2-b]pyridin-1-yl]-7H-pyrrolo[2,3-d]pyrimidine] | 0.005 |
